Laboratory results reported in publication PMC8878324, “Evaluation of New Antimicrobial Agents Based on tris(1H-Indol-3-yl)methylium Salts: Activity, Toxicity, Suppression of Experimental Sepsis in Mice” (Pharmaceuticals, 2022).
Converted amounts (≈) assume the structure as drawn.

Experiments:
Assay in all cases: MIC by broth microdilution
Type in all cases: cell-based
[1] = system: Staphylococcus aureus 100KC; settings: Staphylococcus aureus 100KC (MRSA)
Procedure: (§1) We have tested the antimicrobial activity in vitro of over 100 tris(indolyl)methane derivatives against 16 strains of Gram-positive, Gram-negative bacteria and fungi including either sensitive or drug-resistant strains from ATCC, as well as resistant clinical isolates from the culture collection of the Laboratory for Control of Hospital Infections (Sechenov University, Moscow, Russia). The minimum inhibitory concentrations (MICs) were determined by the microdilution method in a cation-adjusted Müller–Hinton medium for bacteria and in a liquid culture medium RPMI 1640 with L-glutamine without sodium bicarbonate for fungi in accordance with the requirements of the Institute of Clinical and Laboratory Standards (CLSI/NCCLS). […] As a rule, their activity against Gram-negative bacteria was usually not that high. […] For comparison, the antimicrobial activity of prototype 4 is shown. The antibacterial antibiotic levofloxacin and the antifungal amphotericin B were used as reference drugs (Table 1).
(§2) The synthesis of compounds and the scheme of their preparation and purification, as well as physicochemical characteristics, were described earlier. To evaluate the biological activity in vitro, the compounds were dissolved in DMSO at a concentration of 2.0–6.4 mg/mL, followed by preparation of two-fold dilutions in the same solvent, if necessary. The solutions were further diluted in an aqueous medium for the final concentration of DMSO not to exceed 1%, and the concentration of the compounds ranged from 64.0 to 0.13 μg/mL. To study compounds in vivo, solutions for intravenous administration in 5% glucose solution were prepared. Solutions were sterilized by filtration through 0.22 µm filters (Millipore, Burlington, MA, USA).
(§3) Strains of Gram-positive, Gram-negative bacteria and fungi including sensitive or drug-resistant strains from ATCC, as well as resistant clinical isolates from the culture collection of the Laboratory for Control of Hospital Infections (Sechenov University, Moscow, Russia), were used. Clinical isolates of Gram-positive bacteria Staphylococcus aureus 5 (MRSA), Staphylococcus aureus 10, Staphylococcus aureus 100KC (MRSA), Staphylococcus epidermidis 533, Staphylococcus haemoliticus 585 and Enterococcus faecium 569, as well as collection cultures of Gram-positive bacteria Staphylococcus aureus ATCC 700699, Staphylococcus aureus ATCC 25923, Staphylococcus aureus ATCC 3798 and collection cultures of Gram-negative bacteria Escherichia coli ATCC 25922, Klebsiella pneumoniae ATCC 13883, Proteus vulgaris ATCC 13315, Salmonella cholerasuis ATCC 14028, Pseudomonas aeruginosa ATCC 27853 and collection cultures of the yeast Candida albicans ATCC 14053 and the fungi Aspergillus niger ATCC 16404 were used. To grow the microorganisms, we used Trypticase Soy Agar (TSA, Sigma-Aldrich Co., Burlington, MA, USA). Trypticase Soy Agar, BBL, was used for cultivation of Staphylococcus spp. and E. coli. For cultivation of Enterococcus spp. and P. aeruginosa we used a ready-made dry medium Columbia Agar Base, BBL. The media were sterilized by autoclaving at 121 °C for 15 min. Yeast culture C. albicans was grown on Sabouraud agar (peptone—10 g, glucose—40 g, agar—20 g, distilled water—1 L, pH 6.0), and filamentous fungi A. niger was grown on potato–glucose agar (potatoes—200 g, glucose—20 g, agar—15 g, distilled water—1 L, pH 5.5–6.0).
(§4) To determine the antibacterial effect, a liquid Müller–Hinton medium (Becton, Dickinson and Company, Cockeysville, MD, USA) was used; to determine the effect of compounds on fungi we used RPMI 1640 medium with L-glutamine, without sodium bicarbonate, which was prepared from a dry medium (ICN Biomedicals Inc., Costa Mesa, CA, USA) by dilution in distilled water, subsequent buffering with 0.165 M of morpholinepropanesulfonic acid (MOPS, Acros Organics B.V.B.A., Morris Plains, NJ, USA) and adjusting the pH of the medium to 7.0 by adding 1 N of NaOH solution. […]

[2] = system: Staphylococcus epidermidis 533
Procedure: as §1, §2, §3, §4

[3] = system: Staphylococcus aureus ATCC 25923; settings: ATCC25923
Procedure: as §1, §2, §3, §4

[4] = system: Staphylococcus aureus ATCC 700699; settings: ATCC700699
Procedure: as §1, §2, §3, §4

[5] = system: Escherichia coli ATCC 25922; settings: ATCC25922
Procedure: as §1, §2, §3, §4

[6] = system: Klebsiella pneumoniae ATCC 13883; settings: ATCC13883
Procedure: as §1, §2, §3, §4

[7] = system: Salmonella cholerasuis ATCC 14028; settings: ATCC14028
Procedure: as §1, §2, §3, §4

Staphylococcus aureus 5 = Staphylococcus aureus 5 (MRSA)
Procedure: as §1, §2, §3, §4

[8] = system: Pseudomonas aeruginosa ATCC 27853; settings: ATCC27853
Procedure: as §1, §2, §3, §4

Enterococcus faecium 569 = settings: for MIC: Enterococcus faecium 569; for activity against Enterococcus faecium 569: in words, strain resistant to cefuroxime, clindamycin, gentamycin, vancomycin and doxycycline
Procedure: as §1, §2, §3, §4

[9] = system: Proteus vulgaris ATCC 13315; settings: ATCC13315
Procedure: as §1, §2, §3, §4

[10] = system: Staphylococcus haemoliticus 585; settings: for MIC: Staphylococcus haemoliticus 585
Procedure: as §1, §2, §3, §4

Staphylococcus aureus 10 = system: Staphylococcus aureus 10
Procedure: as §1, §2, §3, §4

[11] = system: Staphylococcus aureus ATCC 3798; settings: ATCC3798
Procedure: as §1, §2, §3, §4

## OCCCCCn1cc([C+](c2cn(CCCCCO)c3ccccc23)c2cn(CCCCCO)c3ccccc23)c2ccccc21.[Cl-] [Compound 1, tris(1-(5-Hydroxypentyl)-1H-indol-3-yl) methylium chloride]
[1]
  MIC: 2 µg/mL
[2]
  MIC: 1 µg/mL
[3]
  MIC: 2 µg/mL
[4]
  MIC: 2 µg/mL
[5]
  MIC: 8 µg/mL
[6]
  MIC: 2 µg/mL
[7]
  MIC: > 64 µg/mL
Staphylococcus aureus 5
  MIC: 4 µg/mL
[8]
  MIC: > 64 µg/mL
Enterococcus faecium 569
  MIC: 8 µg/mL
  activity against Enterococcus faecium 569: reduced activity
[9]
  MIC: 64 µg/mL
[10]
  MIC: 4 µg/mL
Staphylococcus aureus 10
  MIC: 1 µg/mL
[11]
  MIC: 2 µg/mL

## CCCn1cc([C+](c2cn(CCC)c3ccccc23)c2cn(C3=C(N)C(=O)NC3=O)c3ccccc23)c2ccccc21.[Cl-] [Compound 2, (1-(4-Amino-2,5-dioxo-2,5-dihydro-1H-pyrrol-3-yl)-1H-indol-3-yl)bis(1-propyl-1H-indol-3-yl) methylium chloride]
[1]
  MIC: 0.5 µg/mL
[2]
  MIC: 0.5 µg/mL
[3]
  MIC: 0.5 µg/mL
[4]
  MIC: 0.5 µg/mL
[5]
  MIC: > 64 µg/mL
[6]
  MIC: > 64 µg/mL
[7]
  MIC: > 64 µg/mL
Staphylococcus aureus 5
  MIC: 0.25 µg/mL
[8]
  MIC: 32 µg/mL
Enterococcus faecium 569
  MIC: 8 µg/mL
[9]
  MIC: 16 µg/mL
[10]
  MIC: 2 µg/mL
Staphylococcus aureus 10
  MIC: 0.5 µg/mL
[11]
  MIC: 0.25 µg/mL

## CCCn1cc([C+](c2cn(CCC)c3ccccc23)c2cn(C3=C(N(C)C)C(=O)NC3=O)c3ccccc23)c2ccccc21 [Compound 3, 1-(4-Dimethylamino-2,5-dioxo-2,5-dihydro-1H-pyrrol-3-yl) -1H-indol-3-yl) bis(1-propyl-1H-indol-3-yl) methylium chloride]
[1]
  MIC: 0.13 µg/mL
[2]
  MIC: 0.5 µg/mL
[3]
  MIC: 0.13 µg/mL
[4]
  MIC: 0.13 µg/mL
[5]
  MIC: 16 µg/mL
[6]
  MIC: > 64 µg/mL
[7]
  MIC: > 64 µg/mL
Staphylococcus aureus 5
  MIC: 0.5 µg/mL
[8]
  MIC: 16 µg/mL
Enterococcus faecium 569
  MIC: > 64 µg/mL
  activity against Enterococcus faecium 569: inactive
[9]
  MIC: > 64 µg/mL
[10]
  MIC: > 64 µg/mL
[10]; in words, clinical isolate resistant to penicillins, aminoglycosides and erythromycin
  activity against Staphylococcus haemoliticus 585: not active
Staphylococcus aureus 10
  MIC: 0.25 µg/mL
[11]
  MIC: 0.13 µg/mL

## C[C@H]1COc2c(N3CCN(C)CC3)c(F)cc3c(=O)c(C(=O)O)cn1c23 [Levofloxacin, levofloxacin, reference compound]
[1]
  MIC: 32 µg/mL (≈ 88.6 µM)
[2]
  MIC: 0.5 µg/mL (≈ 1.38 µM)
[3]
  MIC: 0.25 µg/mL (≈ 0.692 µM)
[4]
  MIC: 16 µg/mL (≈ 44.3 µM)
[5]
  MIC: 0.06 µg/mL (≈ 0.166 µM)
[6]
  MIC: 0.25 µg/mL (≈ 0.692 µM)
[7]
  MIC: 0.13 µg/mL (≈ 0.36 µM)
Staphylococcus aureus 5
  MIC: 0.25 µg/mL (≈ 0.692 µM)
[8]
  MIC: 1 µg/mL (≈ 2.77 µM)
Enterococcus faecium 569
  MIC: 1 µg/mL (≈ 2.77 µM)
[9]
  MIC: 4 µg/mL (≈ 11.1 µM)
[10]
  MIC: 0.5 µg/mL (≈ 1.38 µM)
Staphylococcus aureus 10
  MIC: 0.13 µg/mL (≈ 0.36 µM)
[11]
  MIC: 32 µg/mL (≈ 88.6 µM)
